Source: patent US11174249B2, “Cooling composition” (FIRMENICH SA, priority 2017, dated 2021)

Test: Solubility of compound of formula (I) in flavor solvents (Crystalline PV instrument, temperature solubility curve)
Type: physicochemical
Conditions: 22° C.
Experimental: A precise amount of the powder was weighed into a transparent 8 mL tube, 3 g of solvent was added, and the tube was sealed with a cap equipped with an integrated overhead stirrer. The tube was immediately transferred to a Crystalline PV instrument (Technobis Crystallization Systems, The Netherlands), and placed into a precooled reactor at 3° C. The sample was heated and stirred in the reactor at a rate of 0.1° C./min up to 60° C. Each reactor of the Crystalline PV instrument is equipped with an LED sensor and a digital camera, and data is acquired as real-time transmittance to detect turbidity or as video images for visualization. The solubility temperature is reached when all particles have dissolved. In order to establish a temperature solubility curve, at least 4 samples with different concentrations are measured. The data are fitted to an exponential curve according to the model of Hoffmann, and solubility as a function of temperature can be calculated by extrapolation. Under this method, the solubility of N-(1H-pyrazol-3-yl)-N-(thiophen-2-ylmethyl)-2-(p-tolyloxy)acetamide in different solvents, which could be used in flavor application, was measured.

Solubility (in Ethyl lactate)	Solubility (in Augeo Clean Multi)	Solubility (in Dowanol TPM)	Solubility (in Ethanol abs.)	Solubility (in Mint piperita)	Solubility (in PG)	Solubility (in triacetin)	Solubility (in triethyl citrate)	SMILES
26.1%								CCc1ccc(OCC(=O)N(Cc2cccs2)c2cc[nH]n2)cc1 [2-(4-ethylphenoxy)-N-(1H-pyrazol-3-yl)-N-(thiophen-2-ylmethyl)acetamide]
8.6%	5.7%	5.4%	3.3%	2.1%	0.4%	1.2%	3.1%	Cc1ccc(OCC(=O)N(Cc2cccs2)c2ccn[nH]2)cc1 [N-(1H-pyrazol-3-yl)-N-(thiophen-2-ylmethyl)-2-(p-tolyloxy)acetamide]
